US9079866B2, “Flap modulators” (JANSSEN PHARMACEUTICA NV, priority 2013, dated 2015)
Counter-ions that a name gives are not always drawn. Like-named read-outs stand apart in the source and are kept apart here.

How the values were obtained:
[1] = test system: leukotriene pathway in human whole blood (LTB4 levels); assay: Human whole blood assay (A23187-stimulated LTB4); assay type: cell-based; settings: Homo sapiens, read-out: LTB4 IC50 1:1
Outline: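 Heparinised human whole blood, diluted 1:1 in RPMI, was pre-incubated with test compounds for 15 min at 37° Celsius, then stimulated with A23187 (7 μg/mL) for 30 min at 37° Celsius. Plasma LTB4 was measured by immunoassay kit; IC50 from 4-parameter fit; single replicate, at least one healthy donor.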

human FLAP = human FLAP (Homo sapiens (Human), UniProt P20292); assay: FLAP binding assay (HTRF format)
Sequence of human FLAP (P20292 whole entry): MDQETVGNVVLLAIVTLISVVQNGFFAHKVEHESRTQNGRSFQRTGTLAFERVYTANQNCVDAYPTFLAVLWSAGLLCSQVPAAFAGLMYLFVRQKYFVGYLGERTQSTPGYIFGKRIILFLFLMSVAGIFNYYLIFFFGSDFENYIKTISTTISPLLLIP
Outline: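 Samples were run in duplicate on each of two plates and the plate results averaged. Read-out is the HTRF signal ratio.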

[2] = human whole blood diluted 1:1 in RPMI, A23187-stimulated LTB4
[3] = human FLAP wild type, HTRF format, average of two plates, duplicates
[4] = human whole blood diluted 1:1, A23187-stimulated

CC(CO)NS(=O)(=O)c1ccccc1-c1ccc(-c2cnc3[nH]ccc3n2)c(F)c1 (stereo in doubt) [Example 380, 3′-Fluoro-N-[(1S)-2-hydroxy-1-methylethyl]-4′-(5H-pyrrolo[2,3-b]pyrazin-2-yl)biphenyl-2-sulfonamide]
IC50 [1, 2]: 46 nM
Ki (human FLAP; [3]): 1 nM

Nc1cnc(-c2ccc(-c3ccc(C(F)(F)F)cc3F)cc2F)cn1 [Example 471, 5-[2′,3-Difluoro-4′-(trifluoromethyl)biphenyl-4-yl]pyrazin-2-amine]
IC50 [1, 4]: 3400 nM
Ki (human FLAP; wild type FLAP, HTRF format): 250 nM

Nc1cnc(-c2ccc(-c3ccccc3S(=O)(=O)N[C@@H](CO)c3ccccc3)cc2F)cn1 [Example 82, 4′-(5-Aminopyrazin-2-yl)-3′-fluoro-N-[(1R)-2-hydroxy-1-phenylethyl]biphenyl-2-sulfonamide]
IC50 [1, 2]: 18 nM
Ki (human FLAP; [3]): 1 nM

Nc1ncc(-c2ccc(-c3ccccc3S(=O)(=O)N3CCNC[C@@H]3CO)cc2F)cn1 [Example 258, [(2R)-1-{[4′-(2-Aminopyrimidin-5-yl)-3′-fluorobiphenyl-2-yl]sulfonyl}piperazin-2-yl]methanol]
IC50 [1, 2]: 202 nM
Ki (human FLAP; [3]): 243 nM

Nc1cnc(-c2ccc(-c3ccc(C(F)(F)F)cc3O)cc2F)cn1 [Example 554, 4′-(5-Aminopyrazin-2-yl)-3′-fluoro-4-(trifluoromethyl)biphenyl-2-ol]
IC50 [1, 4]: 39 nM
Ki (human FLAP; wild type FLAP, HTRF format): 2 nM

CC(C)CS(=O)(=O)N(C)c1ccccc1-c1ccc(-c2cnc(N)cn2)c(F)c1 [Example 497, N-[4′-(5-Aminopyrazin-2-yl)-3′-fluorobiphenyl-2-yl]-N,2-dimethylpropane-1-sulfonamide]
IC50 [1, 4]: 510 nM
Ki (human FLAP; wild type FLAP, HTRF format): 25 nM

Nc1cnc(-c2ccc(-c3ccccc3S(=O)(=O)N3CCCCCC3)cc2F)cn1 [Example 53, 5-[2′-(Azepan-1-ylsulfonyl)-3-fluorobiphenyl-4-yl]pyrazin-2-amine]
IC50 [1, 2]: 238 nM
Ki (human FLAP; [3]): 3 nM

CC(=O)N1CCC(S(=O)(=O)c2ncccc2-c2ccc(-c3cnc(N)cn3)c(F)c2)CC1 [Example 816, 1-((3-(4-(2-Aminopyrazin-5-yl)-3-fluorophenyl)pyridine-2-yl)sulfonyl)piperidin-1-yl)ethanone hydrogen chloride salt]
IC50 [1, 4]: 46 nM
Ki (human FLAP; wild type FLAP, HTRF format): 21.8 nM

Nc1cnc(-c2ccc(-c3ccccc3S(=O)(=O)c3nccc(N)n3)cc2F)cn1 [Example 727, 2-{[4′-(5-Aminopyrazin-2-yl)-3′-fluorobiphenyl-2-yl]sulfonyl}pyrimidin-4-amine]
IC50 [1, 4]: 1170 nM
Ki (human FLAP; wild type FLAP, HTRF format): 484 nM

Nc1ncc(-c2ccc(-c3ccccc3S(=O)(=O)NC(C3CC3)C3CC3)cn2)cn1 [Example 684, 2-[6-(2-Aminopyrimidin-5-yl)pyridin-3-yl]-N-(dicyclopropylmethyl)benzenesulfonamide trifluoroacetic acid salt]
IC50 [1, 4]: 134 nM
Ki (human FLAP; wild type FLAP, HTRF format): 46.3 nM

Nc1ncc(-c2ccc(-c3cccnc3S(=O)(=O)C3CCCC3)cc2F)cn1 [Example 809, 5-(4-(2-(Cyclopentylsulfonyl)pyridin-3-yl)-2-fluorophenyl)pyrimidine-2-amine hydrochloride]
IC50 [1, 4]: 37.7 nM
Ki (human FLAP; wild type FLAP, HTRF format): 3.8 nM

Nc1cnc(-c2ccc(-c3ccccc3S(=O)(=O)N3CC(F)(F)C3)cc2F)cn1 [Example 52, 5-{2′-[(3,3-Difluoroazetidin-1-yl)sulfonyl]-3-fluorobiphenyl-4-yl}pyrazin-2-amine]
IC50 [1, 2]: 155 nM
Ki (human FLAP; [3]): 4 nM

Nc1ncc(-c2ccc(-c3ccccc3S(=O)(=O)N3CC(O)(C(F)(F)F)C3)cc2F)cn1 [Example 315, 1-((4′-(2-Aminopyrimidin-5-yl)-3′-fluoro-[1,1′-biphenyl]-2-yl)sulfonyl)-3-(trifluoromethyl)azetidin-3-ol]
IC50 [1, 2]: 27 nM
Ki (human FLAP; read-out: FLAP Binding wild type HTRF Ki): 1 nM

Fc1cc(-c2ccccc2Oc2ncccn2)ccc1-c1cnc2[nH]cnc2c1 [Example 544, 6-[3-Fluoro-2′-(pyrimidin-2-yloxy)biphenyl-4-yl]-3H-imidazo[4,5-b]pyridine]
IC50 [1, 4]: 1650 nM
Ki (human FLAP; wild type FLAP, HTRF format): 28 nM

CC(CO)NS(=O)(=O)c1ccccc1-c1ccc(-c2cnc(N)c(C#N)n2)c(F)c1 (stereo in doubt) [Example 412, 4′-(5-Amino-6-cyanopyrazin-2-yl)-3′-fluoro-N-[(1S)-2-hydroxy-1-methylethyl]biphenyl-2-sulfonamide]
IC50 [1, 4]: 509 nM
Ki (human FLAP; wild type FLAP, HTRF format): 19 nM

O=C(c1ccccc1-c1ccc(-c2cnc3[nH]ccc3n2)c(F)c1)N1CCOCC1 [Example 500, 2-[3-Fluoro-2′-(morpholin-4-ylcarbonyl)biphenyl-4-yl]-5H-pyrrolo[2,3-b]pyrazine]
IC50 [1, 4]: 139 nM
Ki (human FLAP; wild type FLAP, HTRF format): 48 nM

Nc1cnc(-c2ccc(-c3ccccc3S(=O)(=O)NC3CC4CCC3C4)cc2F)cn1 (racemic) [Example 10, racemic (endo)-4′-(5-Aminopyrazin-2-yl)-N-bicyclo[2.2.1]hept-2-yl-3′-fluorobiphenyl-2-sulfonamide]
IC50 [1, 2]: 53 nM
Ki (human FLAP; [3]): 3 nM

CS(=O)(=O)c1ccccc1-c1ccc(-c2cnc3[nH]ccc3n2)c(F)c1 [Example 377, 2-[3-Fluoro-2′-(methylsulfonyl)biphenyl-4-yl]-5H-pyrrolo[2,3-b]pyrazine]
IC50 [1, 2]: 979 nM
Ki (human FLAP; [3]): 33 nM

Nc1cnc(-c2ccc(-c3ccccc3S(=O)(=O)N3CCC[C@@H]3CO)cc2F)cn1 [Example 91, (R)-(1-((4′-(5-Aminopyrazin-2-yl)-3′-fluoro-[1,1′-biphenyl]-2-yl)sulfonyl)pyrrolidin-2-yl)methanol]
IC50 [1, 2]: 28 nM
Ki (human FLAP; [3]): 5 nM

N#Cc1nc(-c2ccc(-c3ccccc3S(=O)(=O)C3CC3)cc2F)cnc1N [Example 411, 3-Amino-6-[2′-(cyclopropylsulfonyl)-3-fluorobiphenyl-4-yl]pyrazine-2-carbonitrile]
IC50 [1, 4]: 1970 nM
Ki (human FLAP; wild type FLAP, HTRF format): 36 nM

C[C@H](O)CNS(=O)(=O)c1ccccc1-c1ccc(-c2cnc(N)nc2)c(F)c1 [Example 279, 4′-(2-Aminopyrimidin-5-yl)-3′-fluoro-N-[(2S)-2-hydroxypropyl]biphenyl-2-sulfonamide trifluoroacetic acid salt]
IC50 [1, 2]: 149 nM
Ki (human FLAP; [3]): 70 nM

C[C@@H](CO)NS(=O)(=O)Cc1ccccc1-c1ccc(-c2cnc(N)cn2)c(F)c1 [Example 224, (S)-1-(4′-(5-Aminopyrazin-2-yl)-3′-fluoro-[1,1′-biphenyl]-2-yl)-N-(1-hydroxypropan-2-yl)-methanesulfonamide]
IC50 [1, 2]: 516 nM
Ki (human FLAP; [3]): 293 nM

NCC1CN(S(=O)(=O)c2ccccc2-c2ccc(-c3cnc(N)cn3)c(F)c2)C1 [Example 124, 5-(2′-{[3-(Aminomethyl)azetidin-1-yl]sulfonyl}-3-fluorobiphenyl-4-yl)pyrazin-2-amine]
IC50 [1, 2]: 217 nM
Ki (human FLAP; [3]): 35 nM

CCNS(=O)(=O)c1ccccc1-c1ccc(-c2cnc(N)cn2)c(F)c1 [Example 16, 4′-(5-Aminopyrazin-2-yl)-N-ethyl-3′-fluorobiphenyl-2-sulfonamide]
IC50 [1, 2]: 18 nM
Ki (human FLAP; [3]): 6 nM

Nc1ccc(-c2ccc(-c3ccccc3S(=O)(=O)N3CCC(O)CC3)cc2F)cn1 [Example 360, 1-((4′-(6-Aminopyridin-3-yl)-3′-fluoro-[1,1′-biphenyl]-2-yl)sulfonyl)piperidin-4-ol]
IC50 [1, 2]: 67 nM
Ki (human FLAP; [3]): 22 nM

CS(=O)(=O)c1ccc(CSc2ccccc2-c2ccc(-c3cnc(N)cn3)c(F)c2)cc1 [Example 205, 5-(3-Fluoro-2′-{[4-(methylsulfonyl)benzyl]sulfanyl}biphenyl-4-yl)pyrazin-2-amine]
IC50 [1, 2]: 66 nM
Ki (human FLAP; [3]): 8 nM

CC(C)SCc1ccccc1-c1ccc(-c2cnc(N)cn2)c(F)c1 [Example 236, 5-(3-Fluoro-2′-{[(1-methylethyl)sulfanyl]methyl}biphenyl-4-yl)pyrazin-2-amine hydrochloride]
IC50 [1, 2]: 443 nM
Ki (human FLAP; [3]): 57 nM

Nc1cnc(-c2ccc(-c3ccccc3SCC3CNC(=O)O3)cc2F)cn1 (racemic) [Example 203, racemic 5-({[4′-(5-Aminopyrazin-2-yl)-3′-fluorobiphenyl-2-yl]sulfanyl}methyl)-1,3-oxazolidin-2-one]
IC50 [1, 2]: 52 nM
Ki (human FLAP; [3]): 5 nM

CNS(=O)(=O)c1ccccc1-c1ccc(-c2cnc(N)c(C)n2)c(F)c1 [Example 449, 4′-(5-Amino-6-methylpyrazin-2-yl)-3′-fluoro-N-methylbiphenyl-2-sulfonamide]
IC50 [1, 4]: 79 nM
Ki (human FLAP; wild type FLAP, HTRF format): 22 nM

Nc1cnc(-c2ccc(-c3ccccc3Oc3cc(N4CCC4)ncn3)cc2F)cn1 [Example 539, 5-{2′-[(6-Azetidin-1-ylpyrimidin-4-yl)oxy]-3-fluorobiphenyl-4-yl}pyrazin-2-amine]
IC50 [1, 4]: 52 nM
Ki (human FLAP; wild type FLAP, HTRF format): 2 nM

Nc1cnc(-c2ccc(-c3ccccc3S(=O)(=O)N3CCNC[C@@H]3CO)cc2F)cn1 [Example 146, (R)-(1-((4′-(5-Aminopyrazin-2-yl)-3′-fluoro-[1,1′-biphenyl]-2-yl)sulfonyl)piperazin-2-yl)methanol]
IC50 [1, 2]: 168 nM
Ki (human FLAP; [3]): 19 nM

Nc1ncc(-c2ccc(-c3ccccc3Oc3ccnc(C(F)(F)F)c3)cc2F)cn1 [Example 611, 5-(3-Fluoro-2′-{[2-(trifluoromethyl)pyridin-4-yl]oxy}biphenyl-4-yl)pyrimidin-2-amine]
IC50 [1, 4]: 563 nM
Ki (human FLAP; wild type FLAP, HTRF format): 249 nM

CC(C)(C)OC(=O)N1CCC(COc2ncccc2-c2ccc(-c3cnc(N)cn3)c(F)c2)C1 (centres unmarked) [Example 406, tert-Butyl 3-[({3-[4-(5-aminopyrazin-2-yl)-3-fluorophenyl]pyridin-2-yl}oxy)methyl]pyrrolidine-1-carboxylate]
IC50 [1, 4]: 4310 nM
Ki (human FLAP; wild type FLAP, HTRF format): 135 nM

Nc1cnc(-c2ccc(-c3ccccc3Oc3nccc(N)n3)cc2F)cn1 [Example 528, 2-{[4′-(5-Aminopyrazin-2-yl)-3′-fluorobiphenyl-2-yl]oxy}pyrimidin-4-amine]
IC50 [1, 4]: 34 nM
Ki (human FLAP; wild type FLAP, HTRF format): 5 nM
